Experimental data: the supplement of paper PMC10307832

Tests used:
Experiment in all cases: relative viability (nuclei count vs DMSO), 5 days (fraction); higher = more cells survive
[1] = compound: CCn1c(-c2nonc2N)nc2cnc(Oc3cccc(NC(=O)c4ccc(OCCN5CCOCC5)cc4)c3)cc21 + Nc1ncn([C@H]2C[C@H](O)[C@@H](CO)O2)c(=O)n1 [Decitabine] (partner 2 µM)
Outline: (§1)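 Lung cancer cell lines in 1536-well plates were dosed by pin tool the day after seeding, either with one drug alone or with a fixed anchor-drug dose plus five library-drug doses (not always all listed) in √10 steps. After 5 days, cells were fixed and their nuclei stained in one step (final 0.05% Triton X-100, 1% formaldehyde, 1 ug/ml Hoechst), then counted on 4× images. Relative viability is the nuclei count in treated wells divided by that in vehicle wells. Values are medians of duplicate plates.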

[2] = compound: N=C1NC(=O)/C(=C/c2ccc(O)cc2)S1 [Mirin] + N=C(N)NC(=N)NCCc1ccccc1 [Phenformin] (partner 250 µM)
Outline: as §1

[3] = compound: CCC1=CN=CN=C1N2CCN(CC2)CC3=NC4=C(N3)C=C(C=C4)C(F)(F)F + Cc1nc(NC(=O)N2CCC[C@H]2C(N)=O)sc1-c1ccnc(C(C)(C)C(F)(F)F)c1 [Alpelisib] (partner 2 µM)
Outline: as §1

[4] = compound: N=C1NC(=O)/C(=C/c2ccc(O)cc2)S1 [Mirin] + CS(=O)(=O)N1CCN(Cc2cc3nc(-c4cccc5[nH]ncc45)nc(N4CCOCC4)c3s2)CC1 [Pictilisib] (partner 1 µM)
Outline: as §1

Cell Line	relative viability ([1]; first compound 0.04 µM)	relative viability ([1]; first compound 0.1265 µM)	relative viability ([1]; first compound 0.4 µM)	relative viability ([1]; first compound 1.265 µM)	relative viability ([1]; first compound 4 µM)	relative viability ([2]; first compound 0.25 µM)	relative viability ([2]; first compound 0.7906 µM)	relative viability ([2]; first compound 2.5 µM)	relative viability ([2]; first compound 7.906 µM)	relative viability ([2]; first compound 25 µM)	relative viability ([3]; first compound 0.04 µM)	relative viability ([3]; first compound 0.1265 µM)	relative viability ([3]; first compound 0.4 µM)	relative viability ([3]; first compound 4 µM)	relative viability ([4]; first compound 0.25 µM)	relative viability ([4]; first compound 2.5 µM)	relative viability ([4]; first compound 7.906 µM)	relative viability ([4]; first compound 25 µM)	relative viability ([3]; first compound 1.265 µM)	relative viability ([4]; first compound 0.7906 µM)
SW 900	0.412	0.453	0.42	0.442	0.456	0.732	0.654	0.488	0.597	0.629	–	–	–	–	–	–	–	–	–	–
NCI-H1944	0.416	0.414	0.425	0.442	0.428	0.206	0.227	0.186	0.169	0.167	0.993	0.827	0.778	0.802	0.346	0.328	0.335	0.359	–	–
NCI-H838	0.422	0.393	0.303	0.331	0.271	0.654	0.292	0.634	0.626	0.468	1.1	0.963	0.971	0.986	0.465	0.562	0.54	0.421	0.994	0.398
NCI-H1650	0.504	0.282	0.348	0.604	0.478	0.39	0.456	0.435	0.423	0.295	–	–	–	–	0.576	0.592	0.447	0.385	–	0.494
HCC-827	0.343	0.397	0.328	0.305	0.318	0.415	0.362	0.401	0.403	0.428	1	0.926	0.969	0.956	1.16	1.04	1.03	1.21	0.988	1.08
HCC-366	0.342	0.338	0.482	0.108	0.0747	0.627	–	0.718	0.601	0.583	0.563	0.385	0.335	0.395	0.169	0.158	0.122	0.0892	–	0.17
HARA	0.598	0.665	0.684	0.283	0.206	0.536	–	0.467	0.475	0.36	0.858	0.744	0.816	0.812	0.367	0.437	0.335	0.169	0.651	0.353
NCI-H441	0.307	0.183	0.227	0.265	0.261	0.763	0.876	0.782	0.718	0.628	0.662	0.629	0.762	0.612	0.531	0.528	0.37	0.362	0.753	0.521
LXF-289	0.359	0.403	0.353	0.384	0.318	0.543	0.589	0.546	0.511	0.548	1.01	1.01	0.972	0.974	0.744	0.803	0.844	0.701	0.996	0.747
RERF-LC-KJ	0.621	0.695	0.588	0.452	0.29	0.37	0.543	0.418	0.487	0.461	0.866	0.676	0.834	0.743	0.716	0.563	0.594	0.439	0.582	0.518
CAL-12T	–	–	–	–	–	0.627	–	0.665	0.591	0.657	1.25	1.16	1.06	1.09	0.535	0.561	–	0.368	1.32	–
COR-L 105	0.669	0.512	0.596	0.432	0.377	0.551	0.495	0.479	0.583	0.462	1.07	0.847	0.966	0.894	0.407	0.397	0.373	0.326	0.893	0.263
NCI-H2405	0.68	0.473	0.327	0.251	0.241	0.395	0.392	0.392	0.346	0.37	0.858	0.768	0.651	0.941	0.465	0.401	0.307	0.317	–	0.51
NCI-H2228	–	–	–	–	–	0.377	0.299	0.303	0.295	0.309	0.726	0.931	0.805	0.675	0.397	0.37	0.356	0.346	0.651	0.396
PC-14	0.238	0.252	0.217	0.213	0.286	0.595	0.509	0.659	0.553	0.814	1.07	0.869	0.959	0.982	0.658	0.68	0.797	0.933	0.766	0.568
NCI-H2087	0.321	0.324	0.285	0.289	0.315	0.494	0.559	0.454	0.429	0.613	1.01	0.881	1.05	0.809	0.833	0.818	0.708	0.788	0.805	0.669
A549	0.219	0.304	0.272	–	0.108	0.129	0.138	0.159	0.189	0.235	0.763	0.657	0.849	0.831	0.541	0.55	0.403	0.321	0.698	0.512
NCI-H2342	0.664	0.755	0.814	0.579	0.687	0.724	0.559	0.658	0.37	0.48	–	–	–	–	–	–	–	–	–	–
NCI-H1623	–	–	–	–	–	0.562	0.383	0.577	0.459	0.48	–	–	–	–	–	–	–	–	–	–
SW 1573	0.476	0.466	0.365	0.23	0.173	0.384	0.413	0.378	0.385	0.262	0.591	0.646	0.745	0.687	0.473	0.466	0.355	0.289	0.579	–

Cell Line	relative viability ([1]; first compound 0.04 µM)	relative viability ([1]; first compound 0.1265 µM)	relative viability ([1]; first compound 0.4 µM)	relative viability ([1]; first compound 1.265 µM)	relative viability ([1]; first compound 4 µM)	relative viability ([2]; first compound 0.25 µM)	relative viability ([2]; first compound 0.7906 µM)	relative viability ([2]; first compound 2.5 µM)	relative viability ([2]; first compound 7.906 µM)	relative viability ([2]; first compound 25 µM)	relative viability ([3]; first compound 0.04 µM)	relative viability ([3]; first compound 0.1265 µM)	relative viability ([3]; first compound 0.4 µM)	relative viability ([3]; first compound 4 µM)	relative viability ([4]; first compound 0.25 µM)	relative viability ([4]; first compound 2.5 µM)	relative viability ([4]; first compound 7.906 µM)	relative viability ([4]; first compound 25 µM)	relative viability ([3]; first compound 1.265 µM)	relative viability ([4]; first compound 0.7906 µM)
NCI-H2085	0.433	0.581	0.528	0.466	0.472	0.804	0.756	0.749	0.655	0.654	1.05	0.915	0.991	0.832	0.417	0.484	0.462	0.468	0.879	0.398
NCI-H520	0.611	0.524	0.468	0.347	0.37	0.751	0.459	0.701	0.338	0.356	1.08	0.883	0.838	1.01	0.275	0.274	0.202	0.181	0.765	0.284
Calu-6	–	–	–	–	–	–	–	–	–	–	0.891	0.923	0.86	0.86	0.997	0.862	0.761	0.597	0.822	0.934
SK-LU-1	0.628	0.571	0.423	0.459	0.424	0.643	0.486	0.522	0.497	0.44	1.03	0.995	1.04	1	0.742	0.588	0.464	0.328	0.771	0.555
LCLC-103H	0.647	0.686	0.704	0.664	0.723	0.342	0.345	0.324	0.387	0.358	0.901	1.05	0.952	1.15	0.63	0.536	0.714	0.739	0.932	0.532
HCC-15	0.608	0.516	0.446	0.427	0.507	0.495	0.478	0.446	0.431	0.426	0.954	0.877	0.925	0.889	0.789	0.665	0.551	0.517	0.892	0.411
H3255	0.774	0.594	0.63	0.403	0.518	0.33	0.379	0.408	0.271	0.361	0.742	0.721	0.711	0.65	0.516	0.493	0.306	0.564	0.67	0.444
NCI-H1792	0.45	0.637	0.461	0.433	0.372	0.351	0.369	0.306	0.245	0.264	0.696	0.685	0.641	0.65	0.269	0.294	0.262	0.259	0.503	0.303
NCI-H1563	–	–	–	–	–	0.668	0.76	0.67	0.703	0.657	0.887	0.92	1	0.954	0.619	0.651	0.662	0.538	0.986	0.618
NCI-H647	0.379	0.426	0.276	0.288	0.347	0.613	0.455	0.521	0.542	0.36	1.16	1.05	–	1.05	0.413	0.417	–	0.295	1.02	–
NCI-H2126	0.629	0.623	0.56	0.636	0.519	0.549	0.471	0.509	0.546	0.532	0.74	0.756	0.722	0.745	0.533	0.465	0.456	0.448	0.639	0.406
NCI-H727	–	1.07	0.676	0.662	0.973	0.828	0.922	0.444	0.657	0.577	0.684	0.483	0.463	0.544	0.353	0.458	0.501	0.515	–	0.443
NCI-H522	0.672	0.819	0.698	0.648	0.621	0.608	0.621	0.6	0.574	0.559	–	–	–	–	–	–	–	–	–	–
EMC-BAC-2	0.957	0.894	0.771	0.386	0.465	0.57	0.57	0.559	0.401	0.49	0.748	0.697	0.726	0.774	0.56	0.532	0.508	0.52	0.723	0.546
NCI-H1299	–	–	–	–	–	–	–	–	–	–	1.09	1.07	1.04	1.04	0.811	0.787	0.688	0.602	1.03	0.823
ChaGo-K-1	0.582	0.423	0.525	0.515	0.526	0.485	0.428	0.49	0.423	0.324	–	–	–	–	0.667	0.713	0.571	0.693	–	–
NCI-H1648	0.55	0.65	0.85	0.695	0.675	–	–	–	–	–	–	–	–	–	–	–	–	–	–	–
EBC-1	–	–	–	–	–	–	–	–	–	–	0.962	0.769	0.796	1.03	0.456	0.378	0.238	0.204	0.697	0.343
IA-LM	–	–	–	–	–	–	–	–	–	–	0.805	0.752	0.668	0.748	0.399	0.326	0.349	0.494	0.766	0.438
NCI-H1703	–	–	–	–	–	–	–	–	–	–	0.462	0.401	0.358	0.535	0.25	0.27	–	0.226	0.25	0.252
